What was measured:
Experiment in all cases: relative viability (nuclei count vs DMSO), 5 days (fraction); higher = more cells survive
[1] = compound: CCn1c(-c2nonc2N)nc2cnc(Oc3cccc(NC(=O)c4ccc(OCCN5CCOCC5)cc4)c3)cc21 + CC(=O)Nc1cccc(-n2c(=O)n(C3CC3)c(=O)c3c(Nc4ccc(I)cc4F)n(C)c(=O)c(C)c32)c1 [Trametinib] (partner 0.02 µM)
Summary of the method: (§1)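 Medians of duplicate plates are given as relative viability. That measure is the nuclei count in treated wells divided by the count in vehicle wells. Counts were taken on 4× images of lung cancer cell lines in 1536-well plates, 5 days after pin-tool dosing the day after seeding with one drug alone or a fixed anchor-drug dose plus five library-drug doses (not always all listed) in √10 steps.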

[2] = compound: CCn1c(-c2nonc2N)nc2cnc(Oc3cccc(NC(=O)c4ccc(OCCN5CCOCC5)cc4)c3)cc21 + C[C@]1(O)C[C@@H](c2nc(-c3ccc4ccc(-c5ccccc5)nc4c3)c3c(N)nccn32)C1 [Linsitinib] (partner 1 µM)
Summary of the method: as §1

[3] = compound: CCn1c(-c2nonc2N)nc2cnc(Oc3cccc(NC(=O)c4ccc(OCCN5CCOCC5)cc4)c3)cc21 + Cc1nc(NC(=O)N2CCC[C@H]2C(N)=O)sc1-c1ccnc(C(C)(C)C(F)(F)F)c1 [Alpelisib] (partner 2 µM)
Summary of the method: as §1

[4] = compound: N=C1NC(=O)/C(=C/c2ccc(O)cc2)S1 [Mirin] + Cc1cc(Nc2cc(N3CCN(C)CC3)nc(Sc3ccc(NC(=O)C4CC4)cc3)n2)n[nH]1 [Tozasertib] (partner 0.1 µM)
Summary of the method: as §1

UMC-11
relative viability ([1]; first compound 0.04 µM): 0.609 | relative viability ([1]; first compound 0.1265 µM): 0.607 | relative viability ([1]; first compound 0.4 µM): 0.298 | relative viability ([1]; first compound 1.265 µM): 0.0887 | relative viability ([1]; first compound 4 µM): 0.963 | relative viability ([2]; first compound 0.04 µM): 1.14 | relative viability ([2]; first compound 0.1265 µM): 1.07 | relative viability ([2]; first compound 0.4 µM): 0.915 | relative viability ([2]; first compound 1.265 µM): 0.322 | relative viability ([2]; first compound 4 µM): 0.337 | relative viability ([3]; first compound 0.04 µM): 1.17 | relative viability ([3]; first compound 0.1265 µM): 0.991 | relative viability ([3]; first compound 0.4 µM): 0.78 | relative viability ([3]; first compound 1.265 µM): 0.251 | relative viability ([3]; first compound 4 µM): 0.233 | relative viability ([4]; first compound 0.25 µM): 0.196 | relative viability ([4]; first compound 2.5 µM): 0.203 | relative viability ([4]; first compound 7.906 µM): 0.181 | relative viability ([4]; first compound 25 µM): 0.189
